Where a name gives a salt, the structure may show the parent alone.
What was measured:
E. coli RecA protein = target: T1, E. coli RecA protein (Escherichia coli, UniProt P0A7G6); test: High throughput RecA-luciferase assay (ATP remaining after RecA ATPase reaction); assay type: biochemical; conditions: compounds identified from the screen of more than 22,000 compounds
T1 construct: purchased Epicentre, Madison, Wis
Description: RecA is a DNA-dependent ATPase (i.e., it catalyzes the reaction adenosine triphosphate [ATP]→adenosine diphosphate [ADP]). An assay was developed for RecA ATPase activity based on detection of the amount of ATP remaining in a reaction mixture following incubation of RecA protein, DNA, and ATP. In an exemplary assay, E. coli RecA protein is incubated in reaction buffer with DNA, ATP, and any test compound or compounds for a measured amount of time. The quantity of ATP remaining after the RecA reaction can be quantitated using a subsequent luciferase assay. The luciferase emits more light as more ATP is available. In some embodiments, the amount of ATP remaining can be compared to controls containing either a known inhibitor (full inhibition control) or no test compound (full activity control). In some embodiments, a positive control (having no DNA added to the well) and negative control (having DNA and no compounds) are run with each screen. Positive responses are based upon the percent reduction of activity of luciferase, with a high percentage representing increased RecA inhibition. Percent inhibition can be calculated according to the following equation: […]
An in vitro RecA-luciferase assay was used to screen for RecA inhibitors. RecA is a DNA-dependent ATPase (i.e., it catalyzes the reaction adenosine triphosphate [ATP]→adenosine diphosphate [ADP]). An assay was developed for RecA ATPase activity based on detection of the amount of ATP remaining in a reaction mixture following incubation of RecA protein, DNA, and ATP. […] The quantity of ATP remaining after the RecA reaction was measured by a subsequent luciferase assay. The luciferase emit more light as more ATP was available.
For high throughput screening, the following reagents were added to each well of a 384 well plate:
The reagents were mixed and incubate at room temperature for about 5 minutes. Then, 5.0 μL of ATP mix, as indicated below, were added to each well.
The mix was incubated at room temperature for about 90-120 minutes. 12.5 μL of Kinase-Glo® plus (Promega) were added to each well and incubated at room temperature for about 10 minutes or more. The luminescence of the reaction was measured.
A positive control (having no DNA added to the well) and negative control (having DNA and no compounds) were run with each screen. Positive responses were based upon the percent reduction of activity of luciferase, with a high percentage representing increased RecA inhibition. Percent inhibition can be calculated according to the following equation: […]

S. aureus strain S3 = test: Cell growth assay, first assay (gentamycin potentiation); assay type: cell-based; conditions: gentamycin alone, sublethal concentration 0.3 μg/mL
Description: Cell Growth Assay. This assay measures the ability of cells to grow in the presence of a sublethal dose (i.e., a dose below the MIC) of an antibiotic agent (or test agent, or combination thereof). In general, cells are grown, typically to saturation, and are then diluted and inoculated onto rich medium and onto medium containing a sublethal dose of antibiotic agent. Plates are then grown overnight, and OD600 is measured after overnight growth, as compared with blank plate. If desired, a test agent can be added to the plate, either alone or in combination with the known antibiotic agent, and the ratio of OD600 in the presence of the test agent to OD600 in the absence of the test agent, can be determined. Additional ratios that can be useful as controls include, for example, OD600 in the presence vs. absence of antibiotic agent; OD600 in the absence of any agent vs. in the presence of both antibiotic agent and test agent; etc.
Actinomycin D Potentiates Gentamycin: In the first assay, S. aureus strain S3 was used in a cell growth assay as described in FIG. 4. The strain was grown in the presence and absence of gentamycin and actinomycin D. Various concentrations of gentamycin and actinomycin D were used. Specifically, 40 μL gentamycin stock (5 mg/mL) was first diluted in 360 μL H2O. Then, 200 μL of the diluted gentamycin solution was further mixed with 200 μL H2O. […]

T1 sequence (P0A7G6 2-353): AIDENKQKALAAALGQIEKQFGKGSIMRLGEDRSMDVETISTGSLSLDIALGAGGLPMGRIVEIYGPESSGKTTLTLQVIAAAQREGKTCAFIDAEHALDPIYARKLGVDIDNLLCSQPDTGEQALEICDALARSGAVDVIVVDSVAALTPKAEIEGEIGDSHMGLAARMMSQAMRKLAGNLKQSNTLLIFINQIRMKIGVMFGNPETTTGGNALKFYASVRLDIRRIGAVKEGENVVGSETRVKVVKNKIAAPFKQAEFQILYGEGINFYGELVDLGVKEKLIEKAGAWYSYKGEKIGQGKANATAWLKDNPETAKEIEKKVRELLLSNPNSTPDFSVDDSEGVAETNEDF

| Molecule | activity in the RecA-luciferase screen (in words) (E. coli RecA protein) | growth of S. aureus strain S3 (S. aureus strain S3) |
| --- | --- | --- |
| C[n+]1c2cc(N)ccc2cc2ccc(N)cc21.[Cl-] [acriflavinium hydrochloride] | particularly active |  |
| Nc1c2ccccc2nc2ccccc12 [acrisorcin] | particularly active |  |
| Oc1c(Cl)cc(Cl)cc1Sc1cc(Cl)cc(Cl)c1O [bithionol] | particularly active |  |
| COc1cc2cc3c4cc(OC)c(OC)cc4cc[n+]3c(C)c2cc1OC.O.[Cl-] [coralyne chloride hydrate] | particularly active |  |
| COc1cc2cc3c4cc(OC)c(OC)cc4cc[n+]3c(C)c2cc1OC.[Cl-] [coralyne chloride] | particularly active |  |
| COc1cccc2c1C(=O)c1c(O)c3c(c(O)c1C2=O)C[C@@](O)(C(C)=O)C[C@@H]3O[C@H]1C[C@H](N)[C@H](O)[C@H](C)O1 [daunorubicin hydrochloride] | particularly active |  |
| Cc1cc(N)c2ccccc2[n+]1CCCCCCCCCC[n+]1c(C)cc(N)c2ccccc21 [dequalinium chloride] | particularly active |  |
| Cc1c2ccncc2c(C)c2c1[nH]c1ccccc12 [ellipticine] | particularly active |  |
| Oc1c(Cl)cc(Cl)c(Cl)c1Cc1c(O)c(Cl)cc(Cl)c1Cl [hexachlorophene] | particularly active |  |
| CC[n+]1c(-c2ccccc2)c2cc(N)ccc2c2ccc(N)cc21 [homidium bromide] | particularly active |  |
| Cl.Cl.O=C1c2c(O)ccc(O)c2C(=O)c2c(NCCNCCO)ccc(NCCNCCO)c21 [mitoxathrone hydrochloride] | particularly active |  |
| CC[N+](C)(CC)CCC[n+]1c(-c2ccccc2)c2cc(N)ccc2c2ccc(N)cc21.[I-].[I-] [propidium iodide] | particularly active |  |
| CCN(CC)CCCC(C)Nc1c2ccc(Cl)cc2nc2ccc(OC)cc12 (stereo not drawn) [quinacrine hydrochloride] | particularly active |  |
| doxorubicin hydrochloride | particularly active |  |
| gentamycin |  | grew equally well |
